Measured values reported in article PMC12519992 (2025).

How the values were obtained:
[1] = tested on: BCL2 (DNA, G4) GGGCGCGGGAGGAATTGGGCGGG; test: fluorescence titration of ligand, Hill fit; conditions: K+; 100 mM Tris-KCl, pH 7.4, 25 °C; excitation 300 nm
[2] = tested on: KRAS (DNA, G4) AGGGCGGTGTGGGAAGAGGGAAGAGGGGGAGG; test: ITC; conditions: K+ 100 mM; 100 mM Tris, 100 mM KCl, pH 7.4; 5 µM DNA, 50 µM ligand
[3] = tested on: VEGF (DNA, G4) CGGGGCGGGCCGGGGGCGGGGT; test: ITC; conditions: K+ 100 mM; 100 mM Tris, 100 mM KCl, pH 7.4; 5 µM DNA, 50 µM ligand
[4] = tested on: BCL2 (DNA, G4) GGGCGCGGGAGGAATTGGGCGGG; test: ITC; conditions: K+ 100 mM; 100 mM Tris, 100 mM KCl, pH 7.4; 5 µM DNA, 50 µM ligand
[5] = tested on: c-KIT1 (DNA, G4) GGGAGGGCGCTGGGAGGGAGGG; test: ITC; conditions: K+ 100 mM; 100 mM Tris, 100 mM KCl, pH 7.4; main text prints ~3.3 µM
[6] = tested on: c-KIT2 (DNA, G4) GGGCGGGCGCGAGGGAGGGG; test: ITC; conditions: K+ 100 mM; 100 mM Tris, 100 mM KCl, pH 7.4; main text prints ~2.6 µM
[7] = tested on: c-MYC27 (DNA, G4) TGAGGGTGGGTAGGGTGGGTAA; test: ITC; conditions: K+ 100 mM; 100 mM Tris, 100 mM KCl, pH 7.4; 5 µM DNA, 50 µM ligand
[8] = tested on: dsDNA (dual-labeled) (DNA, duplex) CAATCGGATCGAATTCGATCCGATTG; test: FRET melting; conditions: K+ 60 mM; 60 mM K-cacodylate (table note: Tris-HCl/KCl), pH 7.4; 1 µM compound
[9] = tested on: KRAS (DNA, G4) AGGGCGGTGTGGGAAGAGGGAAGAGGGGGAGG; test: fluorescence titration of ligand, Hill fit; conditions: K+; 100 mM Tris-KCl, pH 7.4, 25 °C; excitation 300 nm
[10] = tested on: c-KIT1 (DNA, G4) GGGAGGGCGCTGGGAGGGAGGG; test: fluorescence titration of ligand, Hill fit; conditions: K+; 100 mM Tris-KCl, pH 7.4, 25 °C; excitation 300 nm
[11] = tested on: c-KIT2 (DNA, G4) GGGCGGGCGCGAGGGAGGGG; test: fluorescence titration of ligand, Hill fit; conditions: K+; 100 mM Tris-KCl, pH 7.4, 25 °C; excitation 300 nm
[12] = tested on: c-MYC27 (DNA, G4) TGAGGGTGGGTAGGGTGGGTAA; test: fluorescence titration of ligand, Hill fit; conditions: K+; 100 mM Tris-KCl, pH 7.4, 25 °C; excitation 300 nm
[13] = tested on: dsDNA (DNA, duplex) CAATCGGATCGAATTCGATCCGATTG; test: fluorescence titration of ligand, Hill fit; conditions: K+; 100 mM Tris-KCl, pH 7.4, 25 °C; main text: no substantial spectral change with dsDNA, ITC negligible

Row | Kd [1] [µM] | KD [2] [µM] | KD [3] [µM] | KD [4] [µM] | KD [5] [µM] | KD [6] [µM] | KD [7] [µM] | ΔTm [8] [°C] | Kd [9] [µM] | KD [1] [µM] | KD [10] [µM] | KD [11] [µM] | KD [12] [µM] | KD [13] [µM] | Compound
1 | 1.8 | – | – | – | – | – | – | – | – | – | – | – | – | – | Nc1nc(C(=O)Nc2ccc(-n3cc(CNC(=O)c4csc(NC(=O)c5csc(N)n5)n4)nn3)cc2)cs1
2 | – | 0.53 ± 0.25 | 17.7 ± 4 | 3 ± 0.1 | 2.2 ± 1 | 3.7 ± 0.3 | 2.28 ± 0.74 | 0.07 | 0.8 | 1.5 | 2 | 1.5 | 2.5 | 2.2 | Nc1nc(C(=O)Nc2nc(C(=O)NCc3cn(-c4ccc(NC(=O)[C@@H]5CCCN5)cc4)nn3)cs2)cs1
3 | – | – | – | – | – | – | – | 0.01 | – | – | – | – | – | – | C[n+]1cc(NC(=O)c2ccc3ccc4ccc(C(=O)Nc5cc6ccccc6[n+](C)c5)nc4c3n2)cc2ccccc21
